The values below come from patent US11254686B1 (Corvus Pharmaceuticals, Inc., priority 2017, dated 2022).

What is called IC50 is the concentration that inhibits the measured activity by half.

One assay has as its target adenosine A2B receptor (Homo sapiens (Human), UniProt P29275). In words: Adenosine receptor activity assay (Table 1), A2B activity. In kind it is biochemical. The settings on record: for Ratio: A2A activity to the A2B activity, A2A/A2B; for IC50: read-out: Ave A2B cAMP IC50.
The next assay has as its target adenosine A2A receptor (Homo sapiens (Human), UniProt P29274). In words: Adenosine receptor activity assay (Table 1), A2A activity. It is filed as biochemical. The following applies: read-out: Ave A2A cAMP IC50.

Chain of adenosine A2B receptor (P29275 whole entry): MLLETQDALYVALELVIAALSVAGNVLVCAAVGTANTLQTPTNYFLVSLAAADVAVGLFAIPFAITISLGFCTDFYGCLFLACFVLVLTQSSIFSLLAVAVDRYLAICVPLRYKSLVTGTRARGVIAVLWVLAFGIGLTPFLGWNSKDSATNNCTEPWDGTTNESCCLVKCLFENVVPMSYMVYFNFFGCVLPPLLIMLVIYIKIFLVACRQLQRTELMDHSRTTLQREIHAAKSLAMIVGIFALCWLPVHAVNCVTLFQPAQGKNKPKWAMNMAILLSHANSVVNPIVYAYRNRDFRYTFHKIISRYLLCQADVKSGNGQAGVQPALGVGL
Chain of adenosine A2A receptor (P29274 whole entry): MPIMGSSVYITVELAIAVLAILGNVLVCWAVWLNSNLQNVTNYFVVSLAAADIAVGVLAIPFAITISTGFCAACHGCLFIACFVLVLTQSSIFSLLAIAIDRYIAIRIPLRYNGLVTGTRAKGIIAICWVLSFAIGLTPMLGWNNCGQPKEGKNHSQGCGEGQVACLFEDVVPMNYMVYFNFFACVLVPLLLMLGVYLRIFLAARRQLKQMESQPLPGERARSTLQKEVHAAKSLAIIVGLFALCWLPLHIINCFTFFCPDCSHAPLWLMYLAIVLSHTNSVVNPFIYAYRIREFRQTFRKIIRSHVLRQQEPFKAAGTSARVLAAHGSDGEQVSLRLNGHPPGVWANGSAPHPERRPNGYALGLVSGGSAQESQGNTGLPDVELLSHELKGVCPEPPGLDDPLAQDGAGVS

As to `C[C@H](Nc1nc(C(=O)N2CC[C@H](NC(=O)OCc3ccccc3)C2)c2sccc2n1)c1cncc(F)c1` [Example Z472, Benzyl ((S)-1-(2-(((S)-1-(5-fluoropyridin-3-yl)ethyl)amino)thieno[3,2-d]pyrimidine-4-carbonyl)pyrrolidin-3-yl)carbamate], at adenosine A2B receptor, the Ratio is recorded as 8.61 and the IC50 fell in the range of 10 to 50 nM. For the same compound, at adenosine A2A receptor, the IC50 is over 500 nM.
Take `COc1ccc(CNC(=O)c2nc(N[C@@H](C)c3ccccn3)nc3ccsc23)cc1` [Example Z474, (S)—N-(4-Methoxybenzyl)-2-((1-(pyridin-2-yl)ethyl)amino)thieno[3,2-d]pyrimidine-4-carboxamide]: on adenosine A2B receptor, the Ratio was 0.80 and the IC50 was 50 to 100 nM. Also, the IC50 on adenosine A2A receptor was in the range of 50 to 100 nM.
For the compound `C[C@H](Nc1nc(C(=O)NCCc2ccc(NC(=O)OC(C)(C)C)cc2)c2sccc2n1)c1cncc(F)c1` [Example Z482, tert-Butyl (S)-(4-(2-(2-((1-(5-fluoropyridin-3-yl)ethyl)amino)thieno[3,2-d]pyrimidine-4-carboxamido)ethyl)phenyl)carbamate], on adenosine A2B receptor, the Ratio turned out to be 5.32 and the IC50 fell in the range of 100 to 500 nM. Besides, the IC50 at adenosine A2A receptor was over 500 nM.
Take `Cc1cc2nc(N[C@@H](C)c3cncc(F)c3)nc(C(=O)N3CC(N(C)C(=O)OC(C)(C)C)C3)c2s1` [Example Z484, tert-Butyl (S)-(1-(2-((1-(5-fluoropyridin-3-yl)ethyl)amino)-6-methylthieno[3,2-d]pyrimidine-4-carbonyl)azetidin-3-yl)(methyl)carbamate]: at adenosine A2B receptor, the Ratio is on record as 4.16 and the IC50 lay in the range of 10 to 50 nM. Besides, the IC50 on adenosine A2A receptor lay within 100 to 500 nM.
For `COC1(C)CN(C(=O)c2nc(N[C@@H](C)c3ccccn3)nc3ccsc23)C1` [Example Z486, (S)-(3-Methoxy-3-methylazetidin-1-yl)(2-((1-(pyridin-2-yl)ethyl)amino)thieno[3,2-d]pyrimidin-4-yl)methanone], on adenosine A2B receptor, the Ratio was determined as 10.58 and the IC50 lay within 50 to 100 nM. Also, the IC50 on adenosine A2A receptor was over 500 nM.
For the compound `Cc1cc2nc(N[C@@H](C)c3cncc(F)c3)nc(C(=O)NCCC3CCN(C(=O)OC(C)(C)C)CC3)c2s1` [Example Z487, tert-Butyl (S)-4-(2-(2-((1-(5-fluoropyridin-3-yl)ethyl)amino)-6-methylthieno[3,2-d]pyrimidine-4-carboxamido)ethyl)piperidine-1-carboxylate], on adenosine A2B receptor, the Ratio amounted to 6.54 and the IC50 was 100 to 500 nM. Moreover, on adenosine A2A receptor, the IC50 was over 500 nM.
In the case of `C[C@H](Nc1nc(C(=O)NCCc2ccc(N)cc2)c2sccc2n1)c1cncc(F)c1` [Example Z493, (S)—N-(4-Aminophenethyl)-2-((1-(5-fluoropyridin-3-yl)ethyl)amino)thieno[3,2-d]pyrimidine-4-carboxamide], at adenosine A2B receptor, the Ratio turned out to be 17.90 and the IC50 fell in the range of 50 to 100 nM. Moreover, the IC50 on adenosine A2A receptor is over 500 nM.
Take `Cc1cc2nc(N[C@@H](C)c3cccnc3)nc(C(=O)N3CC(CNC(=O)OC(C)(C)C)C3)c2s1` [Example Z498, tert-Butyl (S)-((1-(6-methyl-2-((1-(pyridin-3-yl)ethyl)amino)thieno[3,2-d]pyrimidine-4-carbonyl)azetidin-3-yl)methyl)carbamate]: at adenosine A2B receptor, the Ratio amounted to 5.78 and the IC50 was 100 to 500 nM. For the same compound, the IC50 at adenosine A2A receptor was over 500 nM.
The corresponding values for `Cc1cc2nc(N[C@@H](C)c3cccnc3)nc(C(=O)N3CC(CN)C3)c2s1` [Example Z499, (S)-(3-(Aminomethyl)azetidin-1-yl)(6-methyl-2-((1-(pyridin-3-yl)ethyl)amino)thieno[3,2-d]pyrimidin-4-yl)methanone] are 13.99, over 500 nM and over 500 nM.
The corresponding values for `Cc1cc2nc(N[C@@H](C)c3cccnc3)nc(C(=O)NCC[C@@H]3CCNC3)c2s1` [Example Z500, 6-Methyl-2-(((S)-1-(pyridin-3-yl)ethyl)amino)-N-(2-((S)-pyrrolidin-3-yl)ethyl)thieno[3,2-d]pyrimidine-4-carboxamide] are 12.75, over 500 nM and over 500 nM.
The corresponding values for `Cc1cc2nc(N[C@@H](C)c3cccnc3)nc(C(=O)NCC[C@H]3CCNC3)c2s1` [Example Z501, 6-Methyl-2-(((S)-1-(pyridin-3-yl)ethyl)amino)-N-(2-((R)-pyrrolidin-3-yl)ethyl)thieno[3,2-d]pyrimidine-4-carboxamide] are 8.68, over 500 nM and over 500 nM.
Consider `Cc1cc2nc(N[C@@H](C)c3cncc(F)c3)nc(C(=O)N3CC(CN(C)C)C3)c2s1` [Example Z502, (S)-(3-((Dimethylamino)methyl)azetidin-1-yl)(2-((1-(5-fluoropyridin-3-yl)ethyl)amino)-6-methylthieno[3,2-d]pyrimidin-4-yl)methanone], for which the Ratio on adenosine A2B receptor is on record as 4.89. The values for the half-maximal inhibitory concentration (IC50) on adenosine A2B receptor and on adenosine A2A receptor were 10 to 50 nM and 50 to 100 nM, respectively.
Consider `Cc1cc2nc(N[C@@H](C)c3cccnc3)nc(C(=O)N[C@H]3C[C@@H](O)C3)c2s1` [Example Z503, N-((1s,3R)-3-hydroxycyclobutyl)-6-methyl-2-(((S)-1-(pyridin-3-yl)ethyl)amino)thieno[3,2-d]pyrimidine-4-carboxamide], for which the Ratio on adenosine A2B receptor came out at 18.01. Besides, the IC50 at adenosine A2B receptor is 10 to 50 nM; on adenosine A2A receptor it was over 500 nM.
`Cc1cc2nc(N[C@@H](C)c3cccnc3)nc(C(=O)N3CC(CNC(=O)C(C)(C)C)C3)c2s1` [Example Z505, (S)—N-((1-(6-Methyl-2-((1-(pyridin-3-yl)ethyl)amino)thieno[3,2-d]pyrimidine-4-carbonyl)azetidin-3-yl)methyl)pivalamide]: the half-inhibitory concentration (IC50) at adenosine A2B receptor and at adenosine A2A receptor was 100 to 500 nM in each case.
Take `COCC1CN(C(=O)c2nc(N[C@@H](C)c3ccccn3)nc3cc(C)sc23)C1` [Example Z514, (S)-(3-(Methoxymethyl)azetidin-1-yl)(6-methyl-2-((1-(pyridin-2-yl)ethyl)amino)thieno[3,2-d]pyrimidin-4-yl)methanone]: on adenosine A2B receptor, the Ratio worked out at 5.47 and the IC50 was under 10 nM. The IC50 at adenosine A2A receptor fell in the range of 10 to 50 nM.
On to `Cc1cc2nc(N[C@@H](C)c3cccnc3)nc(C(=O)N3CC(CN(C)C)C3)c2s1` [Example Z516, (S)-(3-((Dimethylamino)methyl)azetidin-1-yl)(6-methyl-2-((1-(pyridin-3-yl)ethyl)amino)thieno[3,2-d]pyrimidin-4-yl)methanone], for which, at adenosine A2B receptor, the Ratio is 8.08 and the IC50 is over 500 nM. The IC50 on adenosine A2A receptor was over 500 nM.
For `Cc1cc2nc(N[C@@H](C)c3cncc(F)c3)nc(C(=O)NCCC3CN(C(=O)C(F)(F)F)C3)c2s1` [Example Z521, (S)-2-((1-(5-Fluoropyridin-3-yl)ethyl)amino)-6-methyl-N-(2-(1-(2,2,2-trifluoroacetyl)azetidin-3-yl)ethyl)thieno[3,2-d]pyrimidine-4-carboxamide], at adenosine A2B receptor, the Ratio is 0.06 and the IC50 was over 500 nM. Moreover, at adenosine A2A receptor, the IC50 is over 500 nM.
For `C[C@H](Nc1nc(C(=O)N2CC(CN(C)C(=O)OC(C)(C)C)C2)c2sccc2n1)c1cncc(F)c1` [Example Z525, tert-Butyl (S)-((1-(2-((1-(5-Fluoropyridin-3-yl)ethyl)amino)thieno[3,2-d]pyrimidine-4-carbonyl)azetidin-3-yl)methyl)(methyl)carbamate], at adenosine A2B receptor, the Ratio came to 3.05 and the 50% inhibitory concentration (IC50) fell in the range of 50 to 100 nM. Further, the IC50 at adenosine A2A receptor was in the range of 100 to 500 nM.
For `Cc1cc2nc(N[C@@H](C)c3ccccn3)nc(C(=O)N3CC(CNC(=O)C(C)(C)C)C3)c2s1` [Example Z527, (S)—N-((1-(6-Methyl-2-((1-(pyridin-2-yl)ethyl)amino)thieno[3,2-d]pyrimidine-4-carbonyl)azetidin-3-yl)methyl)pivalamide], at adenosine A2B receptor, the Ratio stood at 7.31 and the IC50 lay within 50 to 100 nM. Further, the IC50 on adenosine A2A receptor was over 500 nM.
`CC(=O)NC1CN(C(=O)c2nc(N[C@@H](C)c3ccccn3)nc3ccsc23)C1` [Example Z533, (S)—N-(1-(2-((1-(pyridin-2-yl)ethyl)amino)thieno[3,2-d]pyrimidine-4-carbonyl)azetidin-3-yl)acetamide]: the IC50 at adenosine A2B receptor and on adenosine A2A receptor was 100 to 500 nM throughout.
`Cc1cc2nc(N[C@@H](C)c3cncc(F)c3)nc(C(=O)NCC3CCNCC3)c2s1` [Example Z534, (S)-2-((1-(5-Fluoropyridin-3-yl)ethyl)amino)-6-methyl-N-(piperidin-4-ylmethyl)thieno[3,2-d]pyrimidine-4-carboxamide]: the Ratio on adenosine A2B receptor is 57.93. In addition, the IC50 is 50 to 100 nM on adenosine A2B receptor and over 500 nM at adenosine A2A receptor.
For `C[C@H](Nc1nc(C(=O)NCCN)c2sccc2n1)c1cncc(F)c1` [Example Z536, (S)—N-(2-Aminoethyl)-2-((1-(5-fluoropyridin-3-yl)ethyl)amino)thieno[3,2-d]pyrimidine-4-carboxamide], at adenosine A2B receptor, the Ratio is reported as 10.26 and the concentration for half-maximal inhibition (IC50) was over 500 nM. In addition, the concentration for half-maximal inhibition (IC50) at adenosine A2A receptor is over 500 nM.
Take `C[C@H](Nc1nc(C(=O)NCCNC(=O)C(C)(C)C)c2sccc2n1)c1cncc(F)c1` [Example Z537, (S)-2-((1-(5-Fluoropyridin-3-yl)ethyl)amino)-N-(2-pivalamidoethyl)thieno[3,2-d]pyrimidine-4-carboxamide]: on adenosine A2B receptor, the Ratio is reported as 0.87 and the IC50 lay in the range of 100 to 500 nM. The IC50 on adenosine A2A receptor lay within 100 to 500 nM.
As for `C[C@H](Nc1nc(C(=O)NCCNS(C)(=O)=O)c2sccc2n1)c1cncc(F)c1` [Example Z538, (S)-2-((1-(5-Fluoropyridin-3-yl)ethyl)amino)-N-(2-(methylsulfonamido)ethyl)thieno[3,2-d]pyrimidine-4-carboxamide], on adenosine A2B receptor, the Ratio turned out to be 12.33 and the IC50 was in the range of 10 to 50 nM. Moreover, the IC50 on adenosine A2A receptor was over 500 nM.
Consider `CC(=O)N1CC(CCNC(=O)c2nc(N[C@@H](C)c3cncc(F)c3)nc3ccsc23)C1` [Example Z539, (S)—N-(2-(1-Acetylazetidin-3-yl)ethyl)-2-((1-(5-fluoropyridin-3-yl)ethyl)amino)thieno[3,2-d]pyrimidine-4-carboxamide], for which the IC50 was in the range of 10 to 50 nM at adenosine A2B receptor and 100 to 500 nM at adenosine A2A receptor.
